From US20260234159A1, “SMALL MOLECULE TREATMENT OF FATTY LIVER DISEASE AND HCC” (SCANDIEDGE THERAPEUTICS AB, priority 2023, published 2026)

Columns and labels:
Format in all cases: cell-based, human
p62 (SQSTM1) = experiment: Western blot, p62 and p-S349 p62; details: 10 μM, 2 days
Protocol: HepG2 cells were seeded into a 6-well plate at 400,000 cells per well. After treatment with 10 μM of JNK-IN-5A and its derivatives for two days, lysates were harvested with CelLytic M (C2978, Sigma-Aldrich). 20 μg lysate was prepared with 2× Laemmli Sample Buffer (1610737, Biorad). SDS PAGE were performed using Mini-PROTEAN® TGX™ Precast Gels (Bio-Rad) and transferred using Trans-Blot® Turbo™ Transfer System (Bio-Rad). Primary antibody, PARP (95425, Cell signalling), Caspase 3 (ab32042, abcam), Bcl-2 (ab182858), STAT1 (HPA000982, Merk), PKL (06653, Sigma), PKM (4053S, Cell signalling), GAPDH (ab8245, abcam), P53 (ab32389, abcam), p21 (ab109199, abcam), p-S349 p62 (ab211324, abcam), p62 (ab109012, abcam), c-Myc (ab32072, abcam), GPX4 (ab125066, abcam), MMP9 (MA5-32705, Invitrogen), β-actin (ab8227, abcam), and α-tubulin (ab7291, abcam) were blotted overnight and Goat Anti-Rabbit HRP (ab205718) and goat anti-mouse IgG-HRP (sc2005, Santa Cruz Biotechnology, Inc.) were blotted for secondary antibody for one hour. ImageQuantTMLAS 500 (29-0050-63, GE) was used to detect protein bands.

HepG2 cells [1] = experiment: MTT cell viability after one week steatosis (ranking of target molecules)
How it was run: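 HepG2 cells, 60,000 per well, kept one week in steatosis medium (high-glucose DMEM, 10 μg/ml insulin, 10 μM T0901317) with 10 μM compound. Medium changed at day 0, 3 and 5. Viability measured by MTT.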

HepG2 cells [2] = experiment: Cellular ROS assay (DCFDA); details: 10 μM, one day
Protocol: HepG2 cells were seeded into a 6-well plate at 400,000 cells per well. After treatment with the compounds at desired concentration and time, TMRE (ab113852, abcam), Autophagy (ab139484, abcam), ROS (ab113851, abcam), and Lipid peroxidation (ab243377, abcam) assay were performed according to manufacturer's instructions. Fluorescence images were taken using ZOE™ Fluorescent Cell Imager (Biorad) and ROI of fluorescence intensity was measured and calculated by Image J. For microplate reader florescence assay, 40,000 of HepG2 cells were seeded into a 96-well plate and triplicated. GFP (Ex480 nm, Em530 nm) and RFP (Ex549 nm, Em574 nm) were measured using a microplate reader (Hidex Sense Meta Plus).

SMILES: COc1ccc(C(=O)Nc2sc3c(c2C#N)CCCCC3)cc1OC [PKL-A135, N-(3-cyano-5,6,7,8-tetrahydro-4H-cyclohepta[b]thiophen-2-yl)-3,4-dimethoxy-benzamide]
- levels of p62 and P-S349 p62 (p62 (SQSTM1)): significantly elevated

SMILES: N#Cc1c(NC(=O)c2cccc3ccccc23)sc2c1CCN(C(=O)Nc1ccccc1OC(F)(F)F)C2 [PKL-A159]
- cell viability of HepG2 (HepG2 cells [1]): exceptionally low cell viability

SMILES: N#Cc1c(NC(=O)c2cccc3ccccc23)sc2c1CCN(CC(=O)Nc1cccc(Br)c1)C2 [PKL-B171]
- cellular ROS (HepG2 cells [2]): significantly increased
